Assays:
Experiment in all cases: relative viability (nuclei count vs DMSO), 5 days (fraction); higher = more cells survive
Dinaciclib + Decitabine = compound: CCc1cnn2c(NCc3ccc[n+]([O-])c3)cc(N3CCCC[C@H]3CCO)nc12 [Dinaciclib] + Nc1ncn([C@H]2C[C@H](O)[C@@H](CO)O2)c(=O)n1 [Decitabine] (partner 2 µM)
How it was run: (§1)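 Each reported value is a median over duplicate plates. It expresses relative viability: treated-well nuclei count divided by vehicle-well nuclei count. Lung cancer cell lines in 1536-well plates were dosed by pin tool a day after seeding, alone with one drug or with a fixed anchor-drug dose plus five library-drug doses (not always all listed) in √10 steps, and nuclei were counted after 5 days.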

Dinaciclib + Bortezomib = compound: CCc1cnn2c(NCc3ccc[n+]([O-])c3)cc(N3CCCC[C@H]3CCO)nc12 [Dinaciclib] + CC(C)C[C@H](NC(=O)[C@H](Cc1ccccc1)NC(=O)c1cnccn1)B(O)O [Bortezomib] (partner 0.002 µM)
How it was run: as §1

Dinaciclib + OSI-027 = compound: CCc1cnn2c(NCc3ccc[n+]([O-])c3)cc(N3CCCC[C@H]3CCO)nc12 [Dinaciclib] + COc1cccc2cc(-c3nc([C@H]4CC[C@H](C(=O)O)CC4)n4ncnc(N)c34)[nH]c12 [OSI-027] (partner 0.5 µM)
How it was run: as §1

Dinaciclib + Crizotinib = compound: CCc1cnn2c(NCc3ccc[n+]([O-])c3)cc(N3CCCC[C@H]3CCO)nc12 [Dinaciclib] + C[C@@H](Oc1cc(-c2cnn(C3CCNCC3)c2)cnc1N)c1c(Cl)ccc(F)c1Cl [Crizotinib] (partner 1 µM)
How it was run: as §1

Dinaciclib + Pemetrexed = compound: CCc1cnn2c(NCc3ccc[n+]([O-])c3)cc(N3CCCC[C@H]3CCO)nc12 [Dinaciclib] + Nc1nc2[nH]cc(CCc3ccc(C(=O)N[C@@H](CCC(=O)O)C(=O)O)cc3)c2c(=O)[nH]1 [Pemetrexed] (partner 0.2 µM)
How it was run: as §1

Cell Line | relative viability (Dinaciclib + Decitabine; first compound 0.009487 µM) | relative viability (Dinaciclib + Decitabine; first compound 0.03 µM) | relative viability (Dinaciclib + Decitabine; first compound 0.09487 µM) | relative viability (Dinaciclib + Decitabine; first compound 0.3 µM) | relative viability (Dinaciclib + Bortezomib; first compound 0.009487 µM) | relative viability (Dinaciclib + Bortezomib; first compound 0.03 µM) | relative viability (Dinaciclib + Bortezomib; first compound 0.09487 µM) | relative viability (Dinaciclib + Bortezomib; first compound 0.3 µM) | relative viability (Dinaciclib + OSI-027; first compound 0.009487 µM) | relative viability (Dinaciclib + OSI-027; first compound 0.03 µM) | relative viability (Dinaciclib + OSI-027; first compound 0.09487 µM) | relative viability (Dinaciclib + OSI-027; first compound 0.3 µM) | relative viability (Dinaciclib + Crizotinib; first compound 0.009487 µM) | relative viability (Dinaciclib + Crizotinib; first compound 0.03 µM) | relative viability (Dinaciclib + Crizotinib; first compound 0.09487 µM) | relative viability (Dinaciclib + Crizotinib; first compound 0.3 µM) | relative viability (Dinaciclib + Pemetrexed; first compound 0.009487 µM) | relative viability (Dinaciclib + Pemetrexed; first compound 0.03 µM) | relative viability (Dinaciclib + Pemetrexed; first compound 0.09487 µM) | relative viability (Dinaciclib + Pemetrexed; first compound 0.3 µM)
LOU-NH91 | 0.642 | 0.434 | 0.269 | 0.271 | 0.4 | 0.345 | 0.287 | 0.281 | 0.787 | 0.543 | 0.227 | 0.222 | 0.738 | 0.348 | 0.29 | 0.267 | 0.443 | 0.276 | 0.256 | 0.234
LU99A | 0.793 | 0.145 | 0.13 | 0.149 | 0.645 | 0.134 | 0.135 | 0.122 | 0.284 | 0.202 | 0.153 | 0.144 | 0.315 | 0.131 | 0.125 | 0.122 | 0.205 | 0.16 | 0.132 | 0.137
LXF-289 | 0.356 | 0.293 | 0.109 | 0.0948 | 1.04 | 0.193 | 0.0851 | 0.0696 | 0.948 | 0.4 | 0.0693 | 0.0617 | 0.754 | 0.274 | 0.0748 | 0.0784 | 0.815 | 0.254 | 0.0816 | 0.0773
NCI-H23 | 0.242 | 0.216 | 0.14 | 0.135 | 0.637 | 0.185 | 0.0983 | 0.106 | 0.714 | 0.227 | 0.132 | 0.1 | 0.47 | 0.171 | 0.107 | 0.0907 | 0.445 | 0.156 | 0.113 | 0.117
NCI-H322M | 0.713 | 0.441 | 0.416 | 0.348 | 1.26 | 1.26 | 0.52 | 0.187 | 0.419 | 0.286 | 0.323 | 0.285 | 1.05 | 0.66 | 0.191 | 0.182 | 0.569 | 0.326 | 0.313 | 0.343
NCI-H441 | 0.223 | 0.199 | 0.134 | 0.147 | 0.45 | 0.158 | 0.2 | 0.143 | 0.519 | 0.185 | 0.202 | 0.153 | 0.595 | 0.134 | 0.0914 | 0.101 | 0.263 | 0.168 | 0.12 | 0.128
NCI-H460 | 0.232 | 0.0239 | 0.0139 | 0.0224 | 0.591 | 0.013 | 0.0102 | 0.0119 | 0.392 | 0.0364 | 0.0185 | 0.0206 | 0.688 | 0.0158 | 0.0092 | 0.011 | 0.0617 | 0.0567 | 0.0208 | 0.017
NCI-H520 | 0.47 | 0.131 | 0.155 | 0.168 | 0.23 | 0.105 | 0.103 | 0.14 | 0.277 | 0.179 | 0.19 | 0.156 | 0.573 | 0.102 | 0.124 | 0.128 | 0.483 | 0.123 | 0.139 | 0.127
NCI-H596 | 1.48 | 0.839 | 0.271 | 0.258 | 1.22 | 0.563 | 0.263 | 0.239 | 0.787 | 0.665 | 0.392 | 0.153 | 1.06 | 0.746 | 0.196 | 0.196 | 0.404 | 0.396 | 0.24 | 0.225
NCI-H647 | 0.296 | 0.131 | 0.0349 | 0.0773 | 0.208 | 0.0668 | 0.0726 | 0.0623 | 0.499 | 0.206 | 0.0824 | 0.0778 | 0.606 | 0.0725 | 0.0657 | 0.0722 | 0.149 | 0.0819 | 0.0645 | 0.0608
NCI-H650 | 0.308 | 0.204 | 0.118 | 0.124 | 0.295 | 0.132 | 0.129 | 0.123 | 0.57 | 0.203 | 0.158 | 0.15 | 0.638 | 0.152 | 0.131 | 0.135 | 0.877 | 0.305 | 0.115 | 0.139
NCI-H661 | 0.472 | 0.181 | 0.158 | 0.196 | 0.774 | 0.155 | 0.167 | 0.186 | 0.637 | 0.163 | 0.168 | 0.168 | 1.02 | 0.474 | 0.145 | 0.166 | 0.798 | 0.365 | 0.214 | 0.151
NCI-H838 | 0.337 | 0.162 | 0.131 | 0.138 | 0.231 | 0.104 | 0.0725 | 0.127 | 0.436 | 0.219 | 0.0977 | 0.0933 | 0.791 | 0.182 | 0.0924 | 0.0905 | 0.262 | 0.13 | 0.12 | 0.0879
NCI-H1355 | 0.364 | 0.321 | 0.174 | 0.157 | 1.16 | 1.1 | 0.223 | 0.152 | 0.435 | 0.212 | 0.159 | 0.151 | 1.17 | 0.762 | 0.185 | 0.141 | 1.04 | 0.976 | 0.449 | 0.116
NCI-H1437 | 0.405 | 0.194 | 0.182 | 0.197 | 0.376 | 0.205 | 0.0732 | 0.0751 | 1 | 0.506 | 0.132 | 0.132 | 0.918 | 0.41 | 0.0916 | 0.0807 | 0.343 | 0.149 | 0.158 | 0.12
